Assay results from ChEMBL document CHEMBL1201862, “PubChem BioAssay data set” (2004).
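Grown in 96-well plates, cells were treated for 48 hours with each compound at five concentrations. Insufficient inhibition: endpoint recorded as highest concentration tested. Abbreviation: GI50, concentration required for 50% inhibition of growth.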 Activity calls are given as the source filed them. Rule as the data show it: active = GI50 up to about 1.1 µM and inactive = higher.

Assays:
Experiment in all cases: NCI tumour cell line growth inhibition, 48 h
[1] = tested on: HT-29
[2] = tested on: SR
[3] = tested on: BT-549
[4] = tested on: UACC-62
[5] = tested on: SF-268
[6] = tested on: MDA-MB-231
[7] = tested on: SK-MEL-2
[8] = tested on: HCT-15
[9] = tested on: MCF7
[10] = tested on: TK-10
[11] = tested on: PC-3
[12] = tested on: 786-0
[13] = tested on: Hs-578T
[14] = tested on: OVCAR-4
[15] = tested on: UO-31
[16] = tested on: RXF 393
[17] = tested on: SK-MEL-5
[18] = tested on: OVCAR-5
[19] = tested on: IGROV-1
[20] = tested on: RPMI-8226

Compound | GI50 [1] | GI50 [2] | GI50 [3] | GI50 [4] | GI50 [5] | GI50 [6] | GI50 [7] | GI50 [8] | GI50 [9] | GI50 [10] | GI50 [11] | GI50 [12] | GI50 [13] | GI50 [14] | GI50 [15] | GI50 [16] | GI50 [17] | GI50 [18] | GI50 [19] | GI50 [20]
COc1ccccc1CCN1CCN(CCCc2ccccc2)CC1 | 28.8 µM (inactive) | 32.7 µM (inactive) | > 100 µM (inactive) | > 100 µM (inactive) | > 100 µM (inactive) | > 100 µM (inactive) | > 100 µM (inactive) | 42.6 µM | 79.6 µM (inactive) | 75.5 µM (inactive) | > 100 µM (inactive) | 45.6 µM (inactive) | > 100 µM (inactive) | 89.7 µM (inactive) | 46.3 µM (inactive) | 59.8 µM (inactive) | 22.1 µM (inactive) | > 100 µM (inactive) | > 100 µM (inactive) | 39.4 µM (inactive)
O=C1c2scc(-c3ccccc3)c2-n2cccc21 | 10.9 µM (inactive) | 13 µM (inactive) | 25.9 µM (inactive) | 17.9 µM (inactive) | 14.3 µM (inactive) | 14.8 µM (inactive) | 12.2 µM (inactive) | 34.1 µM | 17.3 µM (inactive) | 49.8 µM (inactive) | 11.7 µM (inactive) | 13.9 µM (inactive) | 4.59 µM (inactive) | 75.9 µM (inactive) | 22.5 µM (inactive) | 14 µM (inactive) | 15.1 µM (inactive) | 21 µM (inactive) | 2.59 µM (inactive) | 5 µM (inactive)
Cc1ccc(/C=N/NS(=O)(=O)c2ccc(/C=C3\NC(=O)NC3=O)cc2)cc1 | > 100 µM (inactive) | 31.6 µM (inactive) | > 100 µM (inactive) | > 100 µM (inactive) | 22.1 µM (inactive) | 37.1 µM (inactive) | > 100 µM (inactive) | > 100 µM | > 100 µM (inactive) | > 100 µM (inactive) | > 100 µM (inactive) | 61.1 µM (inactive) | 24.2 µM (inactive) | > 100 µM (inactive) | > 100 µM (inactive) | > 100 µM (inactive) | > 100 µM (inactive) | 35.9 µM (inactive) | 87.9 µM (inactive) | > 100 µM (inactive)
COc1ccc(N)c(C(O)CCNC(C)=O)c1 (stereo not given) | > 100 µM (inactive) | > 100 µM (inactive) | > 100 µM (inactive) | > 100 µM (inactive) | > 100 µM (inactive) | > 100 µM (inactive) | > 100 µM (inactive) | > 100 µM | > 100 µM (inactive) | > 100 µM (inactive) | > 100 µM (inactive) | > 100 µM (inactive) | > 100 µM (inactive) | > 100 µM (inactive) | > 100 µM (inactive) | > 100 µM (inactive) | > 100 µM (inactive) | > 100 µM (inactive) | > 100 µM (inactive) | > 100 µM (inactive)
CC(C)(C)C(=O)Nc1cccc(-c2ccc[nH]2)n1 | > 100 µM (inactive) | 67.1 µM (inactive) | > 100 µM (inactive) | 86.9 µM (inactive) | > 100 µM (inactive) | > 65 µM (inactive) | > 100 µM (inactive) | > 100 µM | > 100 µM (inactive) | > 100 µM (inactive) | > 100 µM (inactive) | > 100 µM (inactive) | 22.7 µM (inactive) | > 55.6 µM (inactive) | > 96.8 µM (inactive) | > 100 µM (inactive) | 68.7 µM (inactive) | > 100 µM (inactive) | > 100 µM (inactive) | < 0.01 µM (active)
C1=C\SS/C=C\SS/C=C\SS/C=C\SS/1 | 31.6 µM (inactive) | 54.1 µM (inactive) | > 100 µM (inactive) | > 100 µM (inactive) | 70.8 µM (inactive) | > 100 µM (inactive) | > 100 µM (inactive) | 21.5 µM | 46.7 µM (inactive) | > 100 µM (inactive) | > 100 µM (inactive) | 46 µM (inactive) | > 100 µM (inactive) | > 100 µM (inactive) | > 100 µM (inactive) | 80.9 µM (inactive) | 99.3 µM (inactive) | > 100 µM (inactive) | > 100 µM (inactive) | 58.7 µM (inactive)
C[N+]1(CCC(=O)c2ccccc2)CCC2CCC(C2)C1 (stereo not given) | > 100 µM (inactive) | > 100 µM (inactive) | > 100 µM (inactive) | > 100 µM (inactive) | > 100 µM (inactive) | > 100 µM (inactive) | > 100 µM (inactive) | > 100 µM | > 100 µM (inactive) | > 100 µM (inactive) | > 100 µM (inactive) | > 100 µM (inactive) | > 100 µM (inactive) | > 100 µM (inactive) | > 100 µM (inactive) | > 100 µM (inactive) | > 100 µM (inactive) | > 100 µM (inactive) | > 100 µM (inactive) | > 100 µM (inactive)
O=C1NC(N2CCCC(CO)C2)=N/C1=C\c1ccc(Cl)cc1 (stereo not given) | > 100 µM (inactive) | > 100 µM (inactive) | > 100 µM (inactive) | > 100 µM (inactive) | > 100 µM (inactive) | > 100 µM (inactive) | > 100 µM (inactive) | 77.6 µM | > 100 µM (inactive) | > 100 µM (inactive) | > 100 µM (inactive) | > 100 µM (inactive) | > 100 µM (inactive) | > 100 µM (inactive) | 75 µM (inactive) | > 100 µM (inactive) | > 100 µM (inactive) | > 100 µM (inactive) | 37.1 µM (inactive) | > 100 µM (inactive)
O[C@H]1[C@H](O)[C@@H](Cn2nnc(-c3ccccc3)c2-c2ccccc2)OCO[C@@H]1Cn1nnc(-c2ccccc2)c1-c1ccccc1 | 2.26 µM (inactive) | 2.04 µM (inactive) | 5.31 µM (inactive) | 2.99 µM (inactive) | 4.85 µM (inactive) | 6.47 µM (inactive) | 3.15 µM (inactive) | 3.1 µM | 3.24 µM (inactive) | 5.14 µM (inactive) | 2.68 µM (inactive) | 2.88 µM (inactive) | 6.85 µM (inactive) | 10.5 µM (inactive) | 4.19 µM (inactive) | 2.97 µM (inactive) | 4.32 µM (inactive) | 2.58 µM (inactive) | 3.65 µM (inactive) | 2.32 µM (inactive)
CCOC(=O)/C=C(/OCC)[C@@H]1C(C(=O)c2ccc(Cl)cc2)[C@@H]1/C(=C\C(=O)OCC)OCC (stereo not given in full) | 7.53 µM (inactive) | 17.7 µM (inactive) | 48.5 µM (inactive) | 28.8 µM (inactive) | 45 µM (inactive) | 10.1 µM (inactive) | 56.4 µM (inactive) | > 33 µM | 11.2 µM (inactive) | 6.32 µM (inactive) | 5.89 µM (inactive) | > 33.7 µM (inactive) | 12.9 µM (inactive) | 67.3 µM (inactive) | 4.53 µM (inactive) | 14.3 µM (inactive) | 4.41 µM (inactive) | 30.6 µM (inactive) | 56.5 µM (inactive) | 2.79 µM (inactive)
CCOc1ccccc1/N=N/C1C(=O)N(C(=O)CC(=O)Nc2ccccc2C)N=C1C (stereo not given) | > 100 µM (inactive) | > 100 µM (inactive) | 65.5 µM (inactive) | 21.3 µM (inactive) | 19.6 µM (inactive) | 37.8 µM (inactive) | 38.4 µM (inactive) | 20.9 µM | > 100 µM (inactive) | 52.4 µM (inactive) | > 100 µM (inactive) | 46.9 µM (inactive) | 6.55 µM (inactive) | > 100 µM (inactive) | 27.2 µM (inactive) | 25.4 µM (inactive) | > 100 µM (inactive) | > 100 µM (inactive) | 45 µM (inactive) | 43.9 µM (inactive)
